# Measured values reported in US8940310B2, “Methods of treatment using TLR7 and/or TLR9 inhibitors” (Dynavax Technologies Corporation, priority 2010, dated 2015).
# Marks after values point to notes of the source that are not given here.
# Key:
# [1] = High dosages of IRPs in rats (weight, deaths, histology); assay type: in vivo, Sprague Dawley rats; conditions: rat; for Heart: Cell Vacuolation, number of animals / Heart: Hemorrhage, number of animals / Heart: Mononuclear Cell Infiltration, number of animals / Heart: Necrosis, number of animals / Heart: No significant changes, number of animals / Liver: Liver changes, number of animals / Liver: Mixed cell infiltration, number of animals / Liver: Necrosis, number of animals / Liver: No significant changes, number of animals / Liver: Vacuolation, number of animals / Right Kidney: Hydronephrosis, number of animals / Right Kidney: Mineralization, number of animals / Right Kidney: Necrosis, number of animals / Right Kidney: No significant changes, number of animals / Right Kidney: Tubular basophilia, number of animals / Right Kidney: Tubular changes, number of animals: 6 animals
# [2] = Monomer and tetramer formation of IRPs, size-exclusion HPLC; assay type: physicochemical; conditions: 100 mg/mL in PBS and 0.5M KCl, room temperature, three weeks
# Description: Solutions were prepared of the by mixing 100 mg/mL of the IRP sequences in PBS and 0.5M KCl and storing at room temperature for three to five weeks. The solutions were subsequently analyzed by size-exclusion HPLC.
# human B-cells = assay: Human B-cells cultured in the presence of IRPs, IL-6
# PDC = conditions: in vitro, with GC
# [3] = High dosages of IRPs in mice (weight, histology); assay type: in vivo, BALB/c mice; conditions: for Liver: Liver changes, number of animals / Liver: Mixed cell infiltration, number of animals / Liver: No significan changes, number of animals / Right Kidney: No significant changes, number of animals / Right Kidney: Tubular basophilia, number of animals / Right Kidney: Tubular changes, number of animals: 6 animals; for Heart: No significant changes, number of animals: tissue missing in two animals
# In short: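 BALB/c mice (n=5 per group) received IRPs or saline subcutaneously at 4, 20, 50 or 100 mg/kg on days 1, 4, 7 and 10. Body weight tracked over the study; at termination organ weights, tissue oligonucleotide levels and liver, kidney and heart histology were assessed.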
# TLR7 and TLR9 = assay: Type I IFN-regulated genes in spleens of lupus-prone mice (Taqman); assay type: in vivo, mouse; conditions: (NZBxNZW)F1 and TLR7.Tg.6, IRS 100 μg s.c. every 3 days for 10 days
# Description: (A) (NZBxNZW)F1 mice were treated as described in FIG. 16 but when mice received IRS, different doses of GC were used (in mg per mouse here) (B) (NZBxNZW)F1 and (C) TLR7.Tg.6 mice were left untreated or treated with IRS (100 μg/mice s.c) every 3 days for 10 days and spleens were harvested 18 hr after the last IRS injection. RNA was prepared from the spleens of the animals and the levels of type I IFN-regulated genes were measured by quantitative analysis (Taqman). Averages±standard error of the mean for n=6-10 mice per group.
# PCR reactions were performed as described previously (Barrat et al., 2005). In brief, RNA was extracted from collagenase D-treated splenocyte suspensions with Qiagen RNA and cDNA was generated with SuperScript First-Strand Synthesis System (Invitrogen). ECT was threshold cycle (CT) values for each gene were normalized to the housekeeping genes ubiquitin or β-actin using the formula Eq. 1.8(HSKGENE) (100,000), where HSK is the mean CT of triplicate housekeeping gene runs, GENE is the mean CT of duplicate runs of the gene of interest, and 100,000 is arbitrarily chosen as a factor to bring all values above 0.
# [4] = 10 mg/kg, 0 = no change to 4 = severe
# [5] = 90 mg/kg, 0 = no change to 4 = severe
# [6] = 50 mg/kg, 0 = no change to 4 = severe
# [7] = 100 mg/kg, 0 = no change to 4 = severe
substance,measurement,setting,value
"5′-TGCTCCTGGAGGGGTTGT-3′ (DNA, backbone not given here) [SEQ ID NO:42]","organ weight of the liver, heart, kidney, or spleen","[1]; 10 mg/kg or 100 mg/kg SC days 0, 3, 6, 9",no significant difference
same,"Heart: Cell Vacuolation, number of animals",[1]; 10 mg/kg,0
same,"Heart: Hemorrhage, number of animals",[1]; 10 mg/kg,0
same,"Heart: Mononuclear Cell Infiltration, number of animals",[1]; 10 mg/kg,1
same,"Heart: Necrosis, number of animals",[1]; 10 mg/kg,0
same,"Heart: No significant changes, number of animals",[1]; 10 mg/kg,5
same,"Liver: Liver changes, number of animals",[1]; 10 mg/kg,1
same,"Liver: Mixed cell infiltration, number of animals",[1]; 10 mg/kg,2
same,"Liver: Necrosis, number of animals",[1]; 10 mg/kg,0
same,"Liver: No significant changes, number of animals",[1]; 10 mg/kg,3
same,"Liver: Vacuolation, number of animals",[1]; 10 mg/kg,0
same,"Right Kidney: Hydronephrosis, number of animals",[1]; 10 mg/kg,0
same,"Right Kidney: Mineralization, number of animals",[1]; 10 mg/kg,3
same,"Right Kidney: Necrosis, number of animals",[1]; 10 mg/kg,0
same,"Right Kidney: No significant changes, number of animals",[1]; 10 mg/kg,0
same,"Right Kidney: Tubular basophilia, number of animals",[1]; 10 mg/kg,0
same,"Right Kidney: Tubular changes, number of animals",[1]; 10 mg/kg,6
same,"Heart: Mononuclear Cell Infiltration, mean severity score",[1]; [4],2.0
same,"Liver: Liver changes, mean severity score",[1]; [4],1.0
same,"Liver: Mixed cell infiltration, mean severity score",[1]; [4],1.5
same,"Right Kidney: Mineralization, mean severity score",[1]; [4],2.0
same,"Right Kidney: Tubular changes, mean severity score",[1]; [4],1.0
same,Kidney: tubular basophilia,[1]; 90 mg/kg,occurred
same,Liver: hepatocellular necrosis,[1]; 90 mg/kg,hepatocellular necrosis
same,"Heart: Cell Vacuolation, number of animals",[1]; 90 mg/kg,0
same,"Heart: Hemorrhage, number of animals",[1]; 90 mg/kg,0
same,"Heart: Mononuclear Cell Infiltration, number of animals",[1]; 90 mg/kg,0
same,"Heart: Necrosis, number of animals",[1]; 90 mg/kg,0
same,"Heart: No significant changes, number of animals",[1]; 90 mg/kg,6
same,"Liver: Liver changes, number of animals",[1]; 90 mg/kg,6
same,"Liver: Mixed cell infiltration, number of animals",[1]; 90 mg/kg,4
same,"Liver: Necrosis, number of animals",[1]; 90 mg/kg,1
same,"Liver: No significant changes, number of animals",[1]; 90 mg/kg,0
same,"Liver: Vacuolation, number of animals",[1]; 90 mg/kg,0
same,"Right Kidney: Hydronephrosis, number of animals",[1]; 90 mg/kg,0
same,"Right Kidney: Mineralization, number of animals",[1]; 90 mg/kg,1
same,"Right Kidney: Necrosis, number of animals",[1]; 90 mg/kg,0
same,"Right Kidney: No significant changes, number of animals",[1]; 90 mg/kg,0
same,"Right Kidney: Tubular basophilia, number of animals",[1]; 90 mg/kg,4
same,"Right Kidney: Tubular changes, number of animals",[1]; 90 mg/kg,6
same,"Liver: Liver changes, mean severity score",[1]; [5],2.3
same,"Liver: Mixed cell infiltration, mean severity score",[1]; [5],2.1
same,"Liver: Necrosis, mean severity score",[1]; [5],3.5
same,"Right Kidney: Mineralization, mean severity score",[1]; [5],1.0
same,"Right Kidney: Tubular basophilia, mean severity score",[1]; [5],1.5
same,"Right Kidney: Tubular changes, mean severity score",[1]; [5],2.0
same,fraction in monomer form,[2],54.01%
same,fraction in tetramer form,[2],45.99%
same,Normalized IL-6 Response (Percentage of Positive Control),"human B-cells; Experiment # 1, Max Conc 4.0 uM",13%
same,Normalized IL-6 Response (Percentage of Positive Control),"human B-cells; Experiment # 2, Max Conc 4.0 uM",14%
same,Normalized IL-6 Response (Percentage of Positive Control),"human B-cells; Experiment # 3, Max Conc 4.0 uM",5%
same,Normalized IL-6 Response (Percentage of Positive Control),"human B-cells; Experiment # 4, Max Conc 4.0 uM",9%
same,Normalized IL-6 Response (Percentage of Positive Control),"human B-cells; Experiment # 5, Max Conc 4.0 uM",10%
same,Normalized IL-6 Response (Percentage of Positive Control),"human B-cells; Experiment # 6, Max Conc 4.0 uM",6%
same,Normalized IL-6 Response (Percentage of Positive Control),"human B-cells; Experiment # 7, Max Conc 4.0 uM",9%
same,Normalized IL-6 Response (Percentage of Positive Control),"human B-cells; Experiment # 8, Max Conc 2.0 uM",8%
same,Normalized IL-6 Response (Percentage of Positive Control),"human B-cells; Experiment # 9, Max Conc 2.0 uM",6%
same,Normalized IL-6 Response (Percentage of Positive Control),"human B-cells; Experiment # 10, Max Conc 2.0 uM",18%
same,Normalized IL-6 Response (Percentage of Positive Control),"human B-cells; Experiment # 11, Max Conc 2.0 uM",10%
same,B-cell response as evidenced by IL-6 produced,"human B-cells; human B-cells with IRP alone, 48 hours, FIGS. 1A-B",did not induce any B-cell response
same,GC sensitivity of TLR7/9-stimulated PDC,PDC,restored GC sensitivity to PDC
same,"Heart: Chronic inflammation, number of animals",[3]; 50 mg/kg,1
same,"Heart: Mineralization, number of animals",[3]; 50 mg/kg,1
same,"Heart: Chronic inflammation, mean severity score",[3]; [6],2.0
same,"Heart: Mineralization, mean severity score",[3]; [6],3.0
same,"Liver: Liver changes, mean severity score",[3]; [6],1.0
same,"Liver: Mixed cell infiltration, mean severity score",[3]; [6],1.8
same,"Right Kidney: Tubular changes, mean severity score",[3]; [6],1.0
same,"Liver: Liver changes, number of animals",[3]; 50 mg/kg,5
same,"Liver: Mixed cell infiltration, number of animals",[3]; 50 mg/kg,4
same,"Liver: No significan changes, number of animals",[3]; 50 mg/kg,0
same,"Right Kidney: No significant changes, number of animals",[3]; 50 mg/kg,1
same,"Right Kidney: Tubular basophilia, number of animals",[3]; 50 mg/kg,0
same,"Right Kidney: Tubular changes, number of animals",[3]; 50 mg/kg,5
same,"Heart: No significant changes, number of animals",[3]; 50 mg/kg,2**
same,"Heart: Chronic inflammation, number of animals",[3]; 100 mg/kg,0
same,"Heart: Mineralization, number of animals",[3]; 100 mg/kg,1
same,weight loss as % gain versus pre-dose,"[3]; 100 mg/kg SC days 1, 4, 7, 10",but not SEQ ID NO:42 provoked weight loss
same,"Heart: Mineralization, mean severity score",[3]; [7],2.0
same,"Liver: Liver changes, mean severity score",[3]; [7],1.8
same,"Liver: Mixed cell infiltration, mean severity score",[3]; [7],2.0
same,"Right Kidney: Tubular changes, mean severity score",[3]; [7],1.0
same,"Liver: Liver changes, number of animals",[3]; 100 mg/kg,6
same,"Liver: Mixed cell infiltration, number of animals",[3]; 100 mg/kg,4
same,"Liver: No significan changes, number of animals",[3]; 100 mg/kg,0
same,"Right Kidney: No significant changes, number of animals",[3]; 100 mg/kg,0
same,"Right Kidney: Tubular basophilia, number of animals",[3]; 100 mg/kg,0
same,"Right Kidney: Tubular changes, number of animals",[3]; 100 mg/kg,6
same,"Heart: No significant changes, number of animals",[3]; 100 mg/kg,3**
same,expression of IFN-regulated genes,TLR7 and TLR9,reduced the expression of IFN-regulated genes but not TNF-α
